Test results from patent US20120114588A1, “IBAT INHIBITORS FOR TREATMENT OF METABOLIC DISORDERS AND RELATED CONDITIONS” (ALBIREO AB, priority 2010, published 2012).

What was measured:
[1] = biological target: T1, Ileal Bile Acid Transporter Human (Homo sapiens, UniProt Q12908); assay: ISBT Hu HEK Uptake SPA: Human HEK Glycocholic acid Uptake Radiometric SPA; assay type: cell-based; conditions: human IBAT in HEK cells
T1 construct: expressed in transfected cells; host or cells: HEK
T1 sequence (Q12908 1-348): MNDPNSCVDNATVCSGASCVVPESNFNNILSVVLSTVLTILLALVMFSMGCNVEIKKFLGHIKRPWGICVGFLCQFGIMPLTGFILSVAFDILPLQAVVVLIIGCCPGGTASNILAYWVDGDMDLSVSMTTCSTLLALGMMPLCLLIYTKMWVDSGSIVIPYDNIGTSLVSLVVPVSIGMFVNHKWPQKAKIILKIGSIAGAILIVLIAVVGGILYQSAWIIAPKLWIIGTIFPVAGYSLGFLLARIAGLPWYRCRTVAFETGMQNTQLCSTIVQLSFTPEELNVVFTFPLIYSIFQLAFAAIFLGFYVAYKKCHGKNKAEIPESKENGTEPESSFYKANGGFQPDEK
Description: ISBT Hu HEK Uptake SPA 13203 IBAT HUM Ileal Bile Acid Transporter Human HEK Glycocholic acid Uptake Radiometric—SPA Inhibitor IC50 Mean IC50 (nM) was determined for the compounds of examples 1-14

IBAT = biological target: T2, IBAT (Mus musculus, UniProt P70172); assay: 75SeHCAT intestinal absorption (faecal excretion / body retention) in ApoE knock out mice; assay type: in vivo; conditions: single oral dose 0.156 μmol/kg, 75SeHCAT given 30 min later, 24 h collection, read-out: % inhibition 0.156 μmol/kg (mean IBAT inhibitory effect)
T2 construct: from tissue; host or cells: living ApoE knock-out C57BL/6 mice (intestine, in vivo)
T2 sequence (P70172 1-348): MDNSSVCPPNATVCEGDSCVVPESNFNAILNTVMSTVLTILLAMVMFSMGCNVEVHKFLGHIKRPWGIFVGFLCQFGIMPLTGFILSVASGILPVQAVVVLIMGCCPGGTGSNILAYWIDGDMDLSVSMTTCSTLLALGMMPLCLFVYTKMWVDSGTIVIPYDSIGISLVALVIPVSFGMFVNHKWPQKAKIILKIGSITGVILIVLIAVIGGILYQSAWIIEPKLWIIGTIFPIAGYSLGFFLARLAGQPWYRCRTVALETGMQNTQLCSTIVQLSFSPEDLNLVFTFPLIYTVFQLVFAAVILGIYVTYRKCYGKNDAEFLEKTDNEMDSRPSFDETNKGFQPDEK
Description: Species Mouse; Strain ApoE knock out; Substrain C57BL/6; Sex Female; Total No. of animals 70; Body weight range 20 g to 22 g; Supplier Mollegaard's Breeding (Skensved, Denmark); Identification method ID cards (bar code).
Acclimatisation At least one week at the Section of Laboratory; Animal Resource at AstraZeneca; Housing conditions Kept five by five in cages (Makrolon III, 7 dm2) in a room with regulated temperature ([…]), relative humidity (40% to 60%) and a 12/12 hours light/dark cycle. Diet Free access to R3 pellets (Lactamin, Vadstena, Sweden) during the housing and experimental period. Water Free access to tap water during the housing and experimental period.
Volume(s) of administration 0.1 mL per mousen […]
The animals were orally administered vehicle or Example 14 (0.156 , 0.625 or 2.5 pmol/kg) at 13:00 o'clock on the experimental day. […] The gamma radioactivities of 75SeHCAT in the faeces and in the gall bladder-intestine were separately counted by 1282 CompuGamma CS Gamma counter (Wallac oy, Turku, Finland). The stability as well as the quantity of the 75SeHCAT administered to each mouse, were controlled with an additional 75SeHCAT aliquot following the same experimental process as other tested samples in the study. […]
The mean IBAT inhibitory effect (%) at a dose (pmol/kg): 0.156 was determined for the compounds of examples 1-14 and is reported in Table 1.

- IC50 [1]: 0.15 nM
- inhibition at 0.156 µmol/kg (IBAT): 63%
Compound: CCCCC1(CCCC)CN(c2ccccc2)c2cc(SC)c(OCC(=O)N[C@@H](C(=O)N[C@@H](CC)C(=O)O)c3ccc(O)cc3)cc2S(=O)(=O)C1 [Example 11, 1,1-Dioxo-3,3-dibutyl-5-phenyl-7-methylthio-8-(N-{(R)-α-[N′-((S)-1-carboxypropyl)carbamoyl]-4-hydroxybenzyl}carbamoylmethoxy) -2,3,4,5-tetrahydro-1,5-benzothiazepine]
